Where “and” joins values, the source holds several entries; their conditions need not be identical. Equal entries are not always repeated.
Legend:
BDF1 mice [1] = assay: Single-dose ip LD50 in BDF1 mice; format: in vivo, mouse; settings: 30 days observation
Procedure: Single-dose ip LD50 values were determined in BDF1 mice for the indicated complexes.

L1210 leukemia = assay: Antitumor activity vs transplantable L1210 leukemia (ip) in mice; format: in vivo, mouse; settings: for Max % T/C: dying mice only; for OD (optimum dose): optimum dose from the L1210 test
Text: The antitumor activities of the complexes provided by the present invention have been determined against L-1210 leukemia in the mouse and, for certain of the complexes, against other mouse tumor systems.
(§1) Results of antitumor testing against the transplantable mouse tumors L1210 leukemia, cisplatin-resistant L1210 leukemia, B16 melanoma, Madison 109 lung carcinoma and colon 26 carcinoma are shown below in Tables 1 and 2.
In Table 1 are shown the maximum % T/C values obtained for each platinum compound versus L1210 leukemia using both single and qd 1→5 dosing.
(§2) The methods used to evaluate the platinum complexes for antitumor activity and toxicity in animals are summarized below. These methods have been published elsewhere in more detail (Rose, et al. Cancer Treat. Rep. 66: 135, 1982; Florczyk, et al, Cancer Treat. Rep. 66: 187, 1982).
(§3) The parent line of L1210 leukemia (L1210) was maintained in DBA/2 mice by ip transplantation of 10^5 cells at weekly intervals. […] B16 malenoma (B16) was maintained by sc transplant in C57BL/6 mice every two weeks. Madison 109 lung carcinoma (M109) and colon 26 carcinoma (C26) were maintained by sc transplant in BALB/c mice every two weeks.
(§4) The level and route of tumor inoculum, host, group size, and drug treatment schedule and route for each tumor type are summarized below in Table 6. Each complex was evaluated initially against L1210 at 4 dose levels per schedule selected on the basis of lethality data provided by the Wadley Institute. In subsequent experiments with the other tumors the complexes were evaluated at a minimum of 3 dose levels selected on the basis of maximum tolerated levels in the L1210 experiments. Cisplatin-treated groups and a saline-treated (or untreated) tumor control group were included in each experiment.
(§5) The L1210 experiments were terminated on Day 30 whereas the B16, C26 and M109 experiments were terminated on Day 60 (some C26 experiments were terminated on Day 75). Mice alive at the termination day were autopsied and considered cured if no tumor was visible. […] A complex was considered active if it produced a % T/C value ≥125.

BDF1 mice [2] = assay: Deaths (D.14) in the BUN test in BDF1 mice; format: in vivo, mouse
M109 carcinoma = assay: Antitumor activity vs ip M109 (Madison 109 lung) carcinoma in mice; format: in vivo, mouse; parameters: O.D.: unit not given here; settings: for Max. % T/C: ip M109 (2×; 4×): q3d × 2 or qd 1-4, ip, dying mice only
Text: as §1, §2, §3, §4, §5
8 q3d^a × 2 or qd 1-4, ip

B16 melanoma [3] = assay: Antitumor activity vs ip B16 melanoma in mice; format: in vivo, mouse; parameters: O.D.: unit not given here; settings: for O.D.: ip B16 (3×; 9×); for Max. % T/C: ip B16 (3×; 9×): q4d × 3 or qd 1-9, ip, dying mice only
Text: as §2, §3
The level and route of tumor inoculum, host, group size, and drug treatment schedule and route for each tumor type are summarized below in Table 6. Each complex was evaluated initially against L1210 at 4 dose levels per schedule selected on the basis of lethality data provided by the Wadley Institute.
as §5

[4] = system: L1210/CDDP (cisplatin resistant line of L1210 leukemia); assay: Antitumor activity vs cisplatin-resistant L1210 leukemia (L1210/CDDP) in mice; format: in vivo, mouse
Text: Results of antitumor testing against the transplantable mouse tumors L1210 leukemia, cisplatin-resistant L1210 leukemia, B16 melanoma, Madison 109 lung carcinoma and colon 26 carcinoma are shown below in Tables 1 and 2. […]
as §2, §3, §4, §5

BDF1 mice [5] = assay: Nephrotoxicity: effect on blood urea nitrogen (BUN) in BDF1 mice; settings: for BUN↑, Mouse: effect relative to cisplatin
Procedure: The other compounds were in such short supply that they were tested for effects on BUN values using the optimum dose (O.D.) from the L1210 test for dose selection.
The toxicity studies were done in male BDF1 mice (25-29 gm) and castrated male Fitch ferrets (1-1.5 kg).
The complexes that were active against L1210 were evaluated for nephrotoxicity by determining their effects on blood urea nitrogen (BUN) levels in mice. Groups of 40-50 mice/experiment were bled from the retro-orbital plexus and individual BUN values determined by a modified urease method using a Centrifichem System 400. The test complex, or saline for controls, was given at several dose levels (5-10 mice/dose) in single ip injections. The highest dose of the complex usually corresponded to its LD50 value or 1.5 times its optimal single dose in the L1210 experiment. At least two lower doses were included to evaluate dose-related effects. The BUN values were measured 4 and 7 days after dosing. BUN values ≥30 mg% were considered indicative of drug-induced nephrotoxicity.

C26 carcinoma = assay: Antitumor activity vs ip C26 (colon 26) carcinoma in mice; format: in vivo, mouse; parameters: O.D.: unit not given here
Text: as §1, §2, §3, §4, §5
8 q3d^b × 2 or qd 1-4, ip

B16 melanoma [6] = assay: Antitumor activity vs B16 melanoma, sc tumor implant with iv drug dosing; format: in vivo, mouse
Text: ^b Sc tumor implant with iv drug dosing.
as §3, §4, §5

[7] = L1210, single dose Day 1, ip, (a), (b) determinations
[8] = L1210, single dose Day 1, ip, dose giving the Max % T/C, same order
[9] = L1210, Day 1, in intralipid plus ethanol
[10] = Day 1, in intralipid plus ethanol

In the case of CCC(=O)C(=O)[O-].CCC(=O)C(=O)[O-].N[C@@H]1CCCC[C@H]1N.[Pt+2] (relative stereo) [Example 5, bis(2-ketobutyrato)trans(-)-1,2-diaminocyclohexane platinum(II)], the LD50 (BDF1 mice [1]) is reported as 30 mg/kg/ip, the “O.D. (optimal dose)” value (L1210 leukemia; L1210, QD 1 → 5, ip) is reported as 2.5 mg/kg/inj and the “Max % T/C” value (L1210 leukemia; L1210, QD 1 → 5, ip) is reported as 193%. For the same molecule, the “Max % T/C” value (L1210 leukemia; [7]) was 186% and 200%, the “O.D. (optimal dose)” value (L1210 leukemia; [8]) was 10 mg/kg/inj and 9 mg/kg/inj and the “OD (optimum dose)” value (L1210 leukemia) was 10 mg/kg/ip. For the same molecule, the “Deaths D.14” value (BDF1 mice [2]; 17 mg/kg ip) was 1/10, the “Deaths D.14” value (BDF1 mice [2]; 22.5 mg/kg ip) was 1/10 and the “Deaths D.14” value (BDF1 mice [2]; 30 mg/kg ip) was 3/10. The O.D. (M109 carcinoma; ip M109 (2×; 4×)) was 6, the “Max. % T/C” value (M109 carcinoma) was 131% and the O.D. (B16 melanoma [3]) was 4. For the same molecule, the “Max. % T/C” value (B16 melanoma [3]) was 163%, the Cures/total ([4]; Day 1) was 2/6 and the “O.D. (optimal dose)” value ([4]; Day 1) was 9 mg/kg/inj. For the same molecule, the “Max % T/C” value ([4]; Day 1, dying mice only) was 144%, the “Incidence of BUN > 30 mg %” value (BDF1 mice [5]; 17 mg/kg ip) was 0/10 and the “Incidence of BUN > 30 mg %” value (BDF1 mice [5]; 22.5 mg/kg ip) was 0/10. The “Incidence of BUN > 30 mg %” value (BDF1 mice [5]; 30 mg/kg ip) was 1/9 and the “BUN↑, Mouse” value (BDF1 mice [5]) was 0.
With CCCCB([O-])[O-].N[C@@H]1CCCC[C@H]1N.[Pt+2] (relative stereo) [Example 7, n-butylboronato trans(-)-1,2-diaminocyclohexane platinum(II)] the LD50 (BDF1 mice [1]) was 11.3 mg/kg/ip, the “O.D. (optimal dose)” value (L1210 leukemia; [9]) was 6 mg/kg/inj and the “Max % T/C” value (L1210 leukemia; [9]) was 236% and 217%. For the same molecule, the “O.D. (optimal dose)” value (L1210 leukemia; L1210, QD 1 → 5, ip) was 1 mg/kg/inj, the “Max % T/C” value (L1210 leukemia; [7]) was 179% and the “O.D. (optimal dose)” value (L1210 leukemia; [8]) was 3 mg/kg/inj. For the same molecule, the “OD (optimum dose)” value (L1210 leukemia) was 3.6 mg/kg/ip, the “Deaths D.14” value (BDF1 mice [2]; 6.4 mg/kg ip) was 0/10 and the “Deaths D.14” value (BDF1 mice [2]; 8.5 mg/kg ip) was 0/10. The “Deaths D.14” value (BDF1 mice [2]; 11.3 mg/kg ip) was 0/10, the O.D. (B16 melanoma [3]) was 1.2 and the “Max. % T/C” value (B16 melanoma [3]) was 120%. The Cures/total [4, 10] was 5/6, the “O.D. (optimal dose)” value [4, 10] was 8 mg/kg/inj and the “Max % T/C” value ([4]; Day 1, in intralipid plus ethanol, dying mice only) was 427%. For the same molecule, the “Incidence of BUN > 30 mg %” value (BDF1 mice [5]; 6.4 mg/kg ip) was 0/10, the “Incidence of BUN > 30 mg %” value (BDF1 mice [5]; 8.5 mg/kg ip) was 0/10 and the “Incidence of BUN > 30 mg %” value (BDF1 mice [5]; 11.3 mg/kg ip) was 0/10. The “BUN↑, Mouse” value (BDF1 mice [5]) was 0.
In the case of N.N.[Cl][Pt][Cl] [Cisplatin, reference compound], the Cures/total (C26 carcinoma; ip C26 (2×; 4×)) is reported as 2/8, the “Max. % T/C” value (C26 carcinoma; ip C26 (2×; 4×): q3d × 2 or qd 1-4, ip, dying mice only, listed as cDDP) is reported as 176% and 163% and 144% and the O.D. (C26 carcinoma; ip C26 (2×; 4×), listed as cDDP) is reported as 4 and 3 and 2.5. For the same molecule, the O.D. (B16 melanoma [6]) was 6, the “Max. % T/C” value (B16 melanoma [6]; dying mice only) was 152% and the “OD (optimum dose)” value (L1210 leukemia) was 8 mg/kg/ip. For the same molecule, the “Deaths D.14” value (BDF1 mice [2]; 8 mg/kg ip, historical ranges, 20160 min) was 0-40%, the “Deaths D.14” value (BDF1 mice [2]; 10.5 mg/kg ip, historical ranges, 20160 min) was 0-50% and the “Deaths D.14” value (BDF1 mice [2]; 12 mg/kg ip, historical ranges, 20160 min) was 20-100%. The “Deaths D.14” value (BDF1 mice [2]; 14 mg/kg ip, historical ranges) was 50-100%, the “Max. % T/C” value (M109 carcinoma; listed as cDDP) was 153% and 175% and 155% and 163% and 142% and the “Max. % T/C” value (B16 melanoma [3]; listed as cDDP) was 172% and 186% and 191% and 220% and 185% and 212% and 189%.

Source: patent US4562275A, “Antitumor platinum complexes” (priority 1984, dated 1985)
